The values that follow come from patent US10730856B2, “Benzimidazole derivatives as EP4 ligands” (BAYER PHARMA AKTIENGESELLSCHAFT, priority 2013, dated 2020).

Usually IC50 stands for the concentration that inhibits the measured activity by half.

Chain of human EP4 receptor (P35408 whole entry): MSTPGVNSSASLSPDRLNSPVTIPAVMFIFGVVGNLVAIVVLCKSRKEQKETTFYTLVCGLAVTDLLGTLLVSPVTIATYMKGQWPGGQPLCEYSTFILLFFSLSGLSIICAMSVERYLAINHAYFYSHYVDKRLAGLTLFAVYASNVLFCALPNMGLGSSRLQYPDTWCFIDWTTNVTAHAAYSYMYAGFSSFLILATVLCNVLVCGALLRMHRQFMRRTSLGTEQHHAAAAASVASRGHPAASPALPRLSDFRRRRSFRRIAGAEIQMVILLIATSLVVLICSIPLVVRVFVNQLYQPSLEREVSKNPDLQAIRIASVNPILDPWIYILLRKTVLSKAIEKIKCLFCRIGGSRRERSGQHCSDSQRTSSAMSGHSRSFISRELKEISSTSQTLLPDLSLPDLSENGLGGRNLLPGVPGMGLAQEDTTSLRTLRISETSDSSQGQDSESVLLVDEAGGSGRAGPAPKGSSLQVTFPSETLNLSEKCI

The first assay concerns the target human EP4 receptor (Homo sapiens (Human), UniProt P35408). Nature of the assay: hEP4 antagonism test (cAMP HTRF, PGE2-stimulated hEP4-expressing cells). It counts as cell-based. Particulars: PGE2-induced stimulation of cAMP production, cells expressing the EP4 receptor; read-out: inhibition of PGE2-induced cAMP production in cells expressing the EP4 receptor, IC50. The text has this: The antagonistic action can be determined by an antagonism assay (see Example 3.2.1 of the biological examples).
3. Detection of the Antagonism of the Human Prostaglandin E2 (Subtype ER4) Receptor Signal
Detection of the Antagonization of the hEP4 Signal
Binding of the agonist prostaglandin E2 (PGE2) to the EP4 subtype of the human hPGE2-R (hEP4-R) induces activation of membrane-bound adenylate cyclases and thus the formation of cAMP. In the presence of the phosphodiesterase inhibitor IBMX, this cAMP accumulates intracellularly and is, after cell lysis, employed in a competitive detection method. In this method, it competes with a fluorescently labelled cAMP (cAMP-d2) for binding to an anti-cAMP antibody labelled with an Eu cryptate. In the absence of cellular cAMP, a complex between the Eu-cryptate-labelled anti-cAMP antibody and the cAMP-d2 molecule is formed which, after excitation at 337 nm, allows a FRET-based (FRET=fluorescence resonance energy transfer) enery transfer to the cAMP-d2 tracer and results in a long-lasting fluorescence signal (emission at 665 and 620 nm). This signal is time-resolved, i.e. measured in a suitable measuring device once the background fluorescence has subsided (time resolved; TR-FRET). Additionally, well-ratio determination (emission 665 nm/emission 620 nm*10 000) allows variations in the individual measurements in the added amounts of detection reagents to be normalized.
Administration of prostglandin E2 and increase of intracellular cAMP reduces the FRET signal which increases again if the substance is antagonistically active.
3.2.1 Test for Antagonism (Figures Per Well of a 384-Well Plate):
4 μl of a suspension of hEP4-expressing cells (2500 cells/well) already comprising the cAMP-D2 tracer are added to the substance solutions (50 nl; 100% DMSO) initially charged in a test plate. After 20 minutes of pre-incubation at room temperature, 2 μl of a 3×PGE2 solution are added and the mixture is incubated in the presence of an EC80 concentration of the agonist (0.4 nM) for a further 60 min at room temperature (volume: ˜6 μl), and the whole reaction is then stopped by addition of 2 μl of lysis buffer (volume: ˜8 μl). After a further 20 min at room temperature, the cell lysate is measured in accordance with the instructions of the manufacturer in a measuring instrument suitable for TR-FRET (compare cAMP HTRF assay kit: Cisbio International 62AM6PEJ high range)
In general terms: In TR-FRET formats the signal depends on donor and acceptor labels being close together.
Consider `CCn1c2ccc(-c3nc4cc(C(=O)O)ccc4n3CCOC)cc2c2cc(C)cc(F)c21` [Example 10, 2-(9-Ethyl-8-fluoro-6-methyl-9H-carbazol-3-yl)-1-(2-methoxyethyl)-1H-benzimidazole-5-carboxylic Acid], for which the half-maximal inhibitory concentration (IC50) was around 1.5 nM.

The assay is the same for the next values; noted with them: hEP4-expressing cells, PGE2 at EC80 (0.4 nM), cAMP TR-FRET; read-out: hEP4 antagonization IC50.
Take `CCn1c2ccc(Br)cc2c2cc(-c3nc4c(C)c(C(=O)OC)ccc4n3CCOC)ccc21` [Example 1, Methyl 2-(6-bromo-9-ethyl-9H-carbazol-3-yl)-1-(2-methoxyethyl)-4-methyl-1H-benzimidazole-5-carboxylate]: the half-maximal inhibitory concentration (IC50) amounted to 32 nM.
For `CCn1c2ccc(Br)cc2c2cc(-c3nc4c(C)c(C(=O)O)ccc4n3CCOC)ccc21` [Example 2, 2-(6-Bromo-9-ethyl-9H-carbazol-3-yl)-1-(2-methoxyethyl)-4-methyl-1H-benzimidazole-5-carboxylic Acid], the half-maximal inhibitory concentration (IC50) came to 11 nM.
As for `CCn1c2ccc(-c3nc4c(C)c(C(=O)OC)ccc4n3CCOC)cc2c2cc(C)cc(F)c21` [Example 3, Methyl 2-(9-ethyl-8-fluoro-6-methyl-9H-carbazol-3-yl)-1-(2-methoxyethyl)-4-methyl-1H-benzimidazole-5-carboxylate], the IC50 is 40 nM.
Take `CCn1c2ccc(-c3nc4c(C)c(C(=O)O)ccc4n3CCOC)cc2c2cc(C)cc(F)c21` [Example 4, 2-(9-Ethyl-8-fluoro-6-methyl-9H-carbazol-3-yl)-1-(2-methoxyethyl)-4-methyl-1H-benzimidazole-5-carboxylic Acid]: the concentration for half-maximal inhibition (IC50) was determined as 2.4 nM.
Still for that read-out and setting: as for `CCn1c2ccc(-c3nc4c(C)c(C(=O)O)ccc4n3CCOC)cc2c2cc(F)cc(C)c21` [Example 6, 2-(9-Ethyl-6-fluoro-8-methyl-9H-carbazol-3-yl)-1-(2-methoxyethyl)-4-methyl-1H-benzimidazole-5-carboxylic Acid], the figure is 2 nM; as for `CCn1c2ccc(-c3nc4c(F)c(C(=O)O)ccc4n3CCOC)cc2c2cc(F)cc(C)c21` [Example 7, 2-(9-Ethyl-6-fluoro-8-methyl-9H-carbazol-3-yl)-4-fluoro-1-(2-methoxyethyl)-1H-benzimidazole-5-carboxylic Acid], 2.4 nM; as for `CCn1c2ccc(-c3nc4c(F)c(C(=O)O)ccc4n3CCOC)cc2c2cc(C)cc(F)c21` [Example 8, 2-(9-Ethyl-8-fluoro-6-methyl-9H-carbazol-3-yl)-4-fluoro-1-(2-methoxyethyl)-1H-benzimidazole-5-carboxylic Acid], 1.9 nM.
`CCOC(=O)c1ccc2c(c1)nc(-c1ccc3c(c1)c1cc(C)cc(F)c1n3CC)n2CCOC` [Example 9, Ethyl 2-(9-ethyl-8-fluoro-6-methyl-9H-carbazol-3-yl)-1-(2-methoxyethyl)-1H-benzimidazole-5-carboxylate]: the half-inhibitory concentration (IC50) came out at 62 nM.
Same read-out and setting: the figure for `CCn1c2ccc(-c3nc4cc(C(=O)O)ccc4n3CCOC)cc2c2cc(C)cc(F)c21` [Example 10, 2-(9-Ethyl-8-fluoro-6-methyl-9H-carbazol-3-yl)-1-(2-methoxyethyl)-1H-benzimidazole-5-carboxylic Acid] is 1.5 nM; for `CCn1c2ccc(-c3nc4c(C)c(C(=O)OC)ccc4n3CCOC)cc2c2cc(C)cc(Cl)c21` [Example 11, Methyl 2-(8-chloro-9-ethyl-6-methyl-9H-carbazol-3-yl)-1-(2-methoxyethyl)-4-methyl-1H-benzimidazole-5-carboxylate] it is 47 nM; for `CCn1c2ccc(-c3nc4c(C)c(C(=O)O)ccc4n3CCOC)cc2c2cc(C)cc(Cl)c21` [Example 12, 2-(8-Chloro-9-ethyl-6-methyl-9H-carbazol-3-yl)-1-(2-methoxyethyl)-4-methyl-1H-benzimidazole-5-carboxylic Acid] it is 2.8 nM.
